Assay results: ChEMBL document CHEMBL1133858, “BMS-196085: a potent and selective full agonist of the human beta(3) adrenergic receptor” (Bioorg Med Chem Lett, 2001)

What was measured:
[1] = target: T1, Beta-3 adrenergic receptor (Homo sapiens, UniProt P13945); assay: Agonist activity was assessed by measurement of cAMP accumulation levels in CHO membranes expressing human beta-3 receptor; type: functional, cell membranes
Target sequence in this assay (P13945 whole entry, looked up): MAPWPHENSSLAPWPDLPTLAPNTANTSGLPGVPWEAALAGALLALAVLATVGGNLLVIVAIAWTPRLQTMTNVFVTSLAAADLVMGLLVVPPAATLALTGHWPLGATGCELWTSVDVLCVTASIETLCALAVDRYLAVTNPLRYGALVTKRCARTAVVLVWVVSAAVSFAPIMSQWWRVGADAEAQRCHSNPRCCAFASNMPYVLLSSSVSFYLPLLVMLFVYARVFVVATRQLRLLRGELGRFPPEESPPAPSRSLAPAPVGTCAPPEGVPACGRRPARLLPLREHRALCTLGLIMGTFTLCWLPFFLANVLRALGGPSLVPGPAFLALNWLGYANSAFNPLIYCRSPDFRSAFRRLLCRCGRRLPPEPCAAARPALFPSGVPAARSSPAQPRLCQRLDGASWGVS

[2] = target: T1, Beta-3 adrenergic receptor; assay: Binding affinity to CHO cells expressing the cloned human beta-3 adrenergic receptor in the presence of [125I]iodocyanopindolol; type: cell-based
Target sequence in this assay (P13945 whole entry): as the sequence (P13945 whole entry, looked up) above

ADRB2+ADRB3 (+) = assay: Tested for binding selectivity to beta3 adrenoceptor versus beta2 adrenoceptor
ADRB1+ADRB3 (+) = assay: Tested for binding selectivity to beta3 adrenoceptor versus beta-1 adrenoceptor
[3] = target: T1, Beta-3 adrenergic receptor; assay: Human beta-3 receptor agonist activity was assessed by measurement of cAMP accumulation levels in CHO cells expressing human beta-3 receptor; type: functional, cell-based
Target sequence in this assay (P13945 whole entry, looked up): as above

[4] = Oral systemic bioavailability […] to african green monkey; type: ADME, organism-based; details: cercopithecidae, in vivo, read-out: Bioavailabiility
[5] = Tested for half life upon iv administration to african green monkey; type: ADME, organism-based; details: cercopithecidae, in vivo
[6] = Tested for Clearance upon iv administration to african green monkey; type: ADME, organism-based; details: cercopithecidae, in vivo
[7] = In vivo effective dose for lipolysis in african monkeys after iv administration; type: functional; details: Cercopithecidae
[8] = Dose that produced tachycardia in african green monkeys after iv administration; type: functional, Cercopithecidae
[9] = Lowest dose required to produce statistically significant hypokalemia divided by ED50 for lipolysis in african green monkeys after 30 min (iv); type: functional, Cercopithecidae
[10] = Lowest dose required to produce statistically significant tachycardia divided by ED50 for lipolysis in african green monkeys after 30 min (iv); type: functional, Cercopithecidae
[11] = target: Beta-3 adrenergic receptor (Mus musculus, UniProt P25962); assay: Tested for binding affinity to murine Beta-3 adrenergic receptor
Sequence of Beta-3 adrenergic receptor (Mus musculus, UniProt P25962) (P25962 whole entry): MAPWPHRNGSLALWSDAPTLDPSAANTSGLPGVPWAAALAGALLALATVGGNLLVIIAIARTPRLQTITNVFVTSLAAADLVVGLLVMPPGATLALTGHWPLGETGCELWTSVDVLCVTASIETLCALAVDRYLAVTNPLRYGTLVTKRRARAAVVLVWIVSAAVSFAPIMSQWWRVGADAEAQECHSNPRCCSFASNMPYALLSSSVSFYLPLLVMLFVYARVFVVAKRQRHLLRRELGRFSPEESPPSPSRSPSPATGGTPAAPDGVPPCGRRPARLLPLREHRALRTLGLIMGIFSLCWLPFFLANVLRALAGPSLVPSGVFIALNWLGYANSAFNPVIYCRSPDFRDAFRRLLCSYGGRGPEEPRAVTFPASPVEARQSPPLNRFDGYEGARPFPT

[12] = target: Beta-2 adrenergic receptor (Homo sapiens) (UniProt P07550); assay: Tested for Intrinsic activity (IA) against adenylate cyclase in CHO cells transfected with human beta-2 adrenoceptor; type: functional, cell-based
Sequence of Beta-2 adrenergic receptor (Homo sapiens) (P07550 whole entry, looked up): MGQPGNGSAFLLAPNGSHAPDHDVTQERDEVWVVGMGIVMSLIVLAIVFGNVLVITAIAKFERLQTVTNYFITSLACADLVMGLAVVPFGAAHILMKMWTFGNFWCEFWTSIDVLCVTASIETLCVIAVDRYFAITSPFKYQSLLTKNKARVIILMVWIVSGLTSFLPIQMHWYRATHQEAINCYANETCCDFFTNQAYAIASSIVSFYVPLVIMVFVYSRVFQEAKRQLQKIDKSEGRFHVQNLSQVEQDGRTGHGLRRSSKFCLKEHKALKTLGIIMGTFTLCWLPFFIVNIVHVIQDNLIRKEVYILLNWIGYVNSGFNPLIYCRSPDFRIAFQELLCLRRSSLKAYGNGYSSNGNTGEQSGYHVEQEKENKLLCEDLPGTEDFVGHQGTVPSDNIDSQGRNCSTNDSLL

[13] = target: Beta-1 adrenergic receptor (Cavia porcellus) (UniProt B0FL73); assay: Beta1 receptor intrinsic activity is given as a percent of the maximal increase in the beating rate of an isolated spontaneously beating guinea pig atrium induced by isoproterenol; type: functional, tissue-based; details: Cardiac atrium
Sequence of Beta-1 adrenergic receptor (Cavia porcellus) (B0FL73 1-467): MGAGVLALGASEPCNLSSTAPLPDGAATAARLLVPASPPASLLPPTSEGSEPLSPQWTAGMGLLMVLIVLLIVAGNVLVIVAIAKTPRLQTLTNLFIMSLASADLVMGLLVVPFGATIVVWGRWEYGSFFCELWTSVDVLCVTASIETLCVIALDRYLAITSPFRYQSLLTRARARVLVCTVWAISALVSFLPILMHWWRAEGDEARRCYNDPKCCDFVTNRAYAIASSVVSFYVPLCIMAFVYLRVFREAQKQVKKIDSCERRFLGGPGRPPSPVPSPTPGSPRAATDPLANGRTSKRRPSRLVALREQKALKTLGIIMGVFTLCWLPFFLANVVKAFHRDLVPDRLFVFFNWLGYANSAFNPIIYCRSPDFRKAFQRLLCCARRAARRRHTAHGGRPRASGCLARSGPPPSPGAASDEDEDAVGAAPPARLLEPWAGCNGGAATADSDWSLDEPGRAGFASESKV

Homo sapiens = species on record: Homo sapiens; assay: Transdermal flux across human cadaver skin; type: functional
[14] = Tested for volume of distribution upon iv administration to african green monkey; type: ADME, organism-based; details: cercopithecidae, in vivo
[15] = target: Beta-1 adrenergic receptor (Homo sapiens) (UniProt P08588); assay: Tested for Intrinsic activity (IA) against adenylate cyclase in CHO cells transfected with human beta-1 adrenoceptor; type: functional, cell-based
Sequence of Beta-1 adrenergic receptor (Homo sapiens) (P08588 whole entry, looked up): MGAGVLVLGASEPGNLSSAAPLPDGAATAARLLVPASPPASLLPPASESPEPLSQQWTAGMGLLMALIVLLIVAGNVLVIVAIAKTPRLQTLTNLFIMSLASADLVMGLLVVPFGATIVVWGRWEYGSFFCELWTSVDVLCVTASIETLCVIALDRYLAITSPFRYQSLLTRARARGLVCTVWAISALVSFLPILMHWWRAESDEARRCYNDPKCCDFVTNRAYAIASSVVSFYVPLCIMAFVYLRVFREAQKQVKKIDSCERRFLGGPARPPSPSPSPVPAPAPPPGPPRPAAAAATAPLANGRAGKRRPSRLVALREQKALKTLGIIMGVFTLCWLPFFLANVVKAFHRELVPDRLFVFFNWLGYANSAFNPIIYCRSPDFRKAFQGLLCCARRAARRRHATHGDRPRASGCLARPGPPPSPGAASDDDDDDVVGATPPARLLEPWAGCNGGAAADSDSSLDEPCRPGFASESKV

[16] = Tested for Lowest dose required to produce change in plasma potassium level divided by effective dose for lipolysis african green monkey 30 min after iv administration; type: functional, Cercopithecidae
[17] = Tested for Lowest dose required to produce tachycardia divided by effective dose for lipolysis african green monkey 30 min after iv administration; type: functional, Cercopithecidae
[18] = Tested for lowest dose required to produce change in plasma potassium level divided by effective dose for lipolysis african green monkey 30 min after iv administration; type: functional, Cercopithecidae

Intrinsic activity [1] [%]	Ki [2] [µM]	Selectivity ratio (ADRB2+ADRB3 (+))	Selectivity ratio (ADRB1+ADRB3 (+))	Compound	other results
102	0.12	3	79	CNC(=O)c1ccc([C@@H](Cc2ccccc2)NC[C@H](O)c2ccc(O)c(NS(C)(=O)=O)c2)cc1	
	0.069			Cc1cc([C@@H](Cc2ccccc2)NC[C@H](O)c2ccc(O)c(NS(C)(=O)=O)c2)ccc1OC(F)F	
	0.99	0.5	4	CS(=O)(=O)Nc1cc([C@@H](O)CNC(Cc2ccccc2)c2ccc(Oc3ccccc3)cc2)ccc1O (stereo partly specified)	
	0.07			CS(=O)(=O)Nc1cc([C@@H](O)CNC(Cc2ccccc2)c2ccc(OCc3ccccc3)cc2)ccc1O (stereo partly specified)	
108	0.07			CS(=O)(=O)Nc1cc([C@@H](O)CN[C@H](Cc2ccccc2)c2ccc(C(N)=O)cc2)ccc1O	
45	2.4	0.6	4	CS(=O)(=O)Nc1cc(C(O)CNC(Cc2ccccc2)c2nccs2)ccc1O (stereo unspecified)	
	0.009	14	12	C[C@](Cc1ccccc1)(NC[C@H](O)c1ccc(O)c(NS(C)(=O)=O)c1)c1ccc(OC(F)F)cc1	
	0.36	3	15	CS(=O)(=O)Nc1cc(C(O)CNC(Cc2ccccc2)c2ccccc2)ccc1O (stereo unspecified)	Intrinsic activity [3]: 133%
95	0.021	5	36	CS(=O)(=O)Nc1cc([C@@H](O)CN[C@H](Cc2ccccc2)c2ccc(OC(F)F)cc2)ccc1O	bioavailability [4]: 5%; half-life [5]: 7.3 h; clearance [6]: 36 mL/min/kg; ED50 [7]: 0.02 mg/kg; Dose [8]: 0.1 mg/kg; Margin before onset of hypokalemia [9]: 25; Margin before onset of tachycardia [10]: 5; Ki [11]: 4 µM; Intrinsic activity [12]: 45%; Activity [13]: 45%; Activity (Homo sapiens): 12 ug cm**-2 hr-1; Vd [14]: 10 L/kg; Intrinsic activity [15]: 63%
98	0.8	0.4	25	CN(C)C(=O)c1ccc([C@@H](Cc2ccccc2)NC[C@H](O)c2ccc(O)c(NS(C)(=O)=O)c2)cc1	
106	0.074	2	17	CS(=O)(=O)Nc1cc([C@@H](O)CN[C@H](Cc2ccccc2)c2ccc(CC(N)=O)cc2)ccc1O	
	0.038	0.4	37	CS(=O)(=O)Nc1cc([C@@H](O)CN[C@H](Cc2ccccc2)c2ccc(OC(F)F)c(OC(F)F)c2)ccc1O	
129	0.7	8	30	CS(=O)(=O)Nc1cc(C(O)CNC(Cc2ccccc2)c2ccncc2)ccc1O (stereo unspecified)	
106	0.147	4	537	CS(=O)(=O)Nc1cc([C@@H](O)CN[C@H](Cc2ccccc2)c2ccc(C(=O)NO)cc2)ccc1O	
107	0.21	4	30	CS(=O)(=O)Nc1cc([C@@H](O)CN[C@H](Cc2ccccc2)c2ccc(C#N)cc2)ccc1O	
110	0.129	0.3	1	CS(=O)(=O)Nc1cc(C(O)CNC(Cc2ccccc2)c2ccsc2)ccc1O (stereo unspecified)	
129	0.44	3	53	CS(=O)(=O)Nc1cc(C(O)CNC(Cc2ccccc2)c2ccc(S(C)(=O)=O)cc2)ccc1O (stereo unspecified)	
90	0.23	2	19	CS(=O)(=O)Nc1cc(C(O)CNC(Cc2ccccc2)c2ccc3sccc3c2)ccc1O (stereo unspecified)	
100	0.002	9	275	CS(=O)(=O)Nc1cc([C@@H](O)CN[C@H](Cc2ccccc2)c2ccc(OC(F)F)c3ccccc23)ccc1O	ED50 [7]: 0.25 mg/kg; Margin before onset of hypokalemia [16]: 2; Margin before onset of tachycardia [17]: 2; Activity [13]: 23%
94	0.015			COc1ccc([C@@H](Cc2ccccc2)NC[C@H](O)c2ccc(O)c(NS(C)(=O)=O)c2)c(OC)n1	Activity [13]: 60%
	0.084	1	83	CS(=O)(=O)Nc1cc([C@@H](O)CNC(Cc2ccccc2)c2ccc(OCC(F)(F)F)cc2)ccc1O (stereo partly specified)	
105	0.043	6	33	CS(=O)(=O)Nc1cc([C@@H](O)CN[C@H](Cc2ccccc2)c2cccc3ccccc23)ccc1O	ED50 [7]: 0.25 mg/kg; Margin before onset of hypokalemia [18]: 2; Margin before onset of tachycardia [17]: 2; Activity [13]: 40%
98	0.085			COC(=O)c1ccc([C@@H](Cc2ccccc2)NC[C@H](O)c2ccc(O)c(NS(C)(=O)=O)c2)cc1	
85	0.026	9	46	COc1ccc([C@@H](Cc2ccccc2)NC[C@H](O)c2ccc(O)c(NS(C)(=O)=O)c2)c2ccccc12	Activity [13]: 22%
123	8.6	6	17	CS(=O)(=O)Nc1cc([C@@H](O)CN[C@H](Cc2ccccc2)c2ccc(C(=O)O)cc2)ccc1O	
101	0.025	30	180	COc1ccc([C@@H](Cc2ccccc2)NC[C@H](O)c2ccc(O)c(NS(C)(=O)=O)c2)cn1	Activity [13]: 70%
	0.21	2	25	CS(=O)(=O)Nc1cc([C@@H](O)CNC(Cc2ccccc2)c2ccc(OC(F)(F)F)cc2)ccc1O (stereo partly specified)	
94	0.008	8	52	CS(=O)(=O)Nc1cc([C@@H](O)CN[C@H](Cc2ccccc2)c2ccc3c(c2)OCO3)ccc1O	ED50 [7]: 0.02 mg/kg; Dose [8]: 0.1 mg/kg; Margin before onset of hypokalemia [18]: 2; Margin before onset of tachycardia [17]: 1; Activity [13]: 80%
100	0.836			CS(=O)(=O)Nc1cc(C(O)CNC(Cc2ccccc2)c2ccc(F)cc2)ccc1O (stereo unspecified)	
